In brackets after ≈: the same amount, converted by molar mass.
How the values were obtained:
[1] = Binding affinity to N,N'-Ac2-L-Lys-D-Ala-D-Ala (unknown origin)
Enterococcus faecalis [2] = test: Antimicrobial activity against VanB vancomycin-resistant Enterococcus faecalis ATCC 51299 after 24 hrs by microtiter plate assay; format: functional; details: ATCC 51299, 24 h
Staphylococcus aureus [3] = test: Antimicrobial activity against vancomycin-sensitive Staphylococcus aureus ATCC 25923 after 24 hrs by microtiter plate assay; format: functional; details: ATCC 25923, 24 h
Staphylococcus aureus [4] = test: Antimicrobial activity against Staphylococcus aureus ATCC 25923; format: functional
Enterococcus faecalis [5] = test: Antimicrobial activity against VanB vancomycin-resistant Enterococcus faecalis ATCC 51299; format: functional
Enterococcus faecalis [6] = test: Antimicrobial activity against VanA vancomycin-resistant Enterococcus faecalis BM4166; format: functional
[7] = Ratio of MIC for VanB vancomycin-resistant Enterococcus faecalis ATCC 51299 to MIC for vancomycin-sensitive Staphylococcus aureus ATCC 25923; format: functional

SMILES	Ka [1] [×10⁵ /M]	MIC (Enterococcus faecalis [2]) [µg/mL]	MIC (Staphylococcus aureus [3]) [µg/mL]	MIC (Staphylococcus aureus [4]) [µg/mL]	MIC (Enterococcus faecalis [5]) [µg/mL]	MIC (Enterococcus faecalis [6]) [µg/mL]	Ratio [7]
CN[C@H](CC(C)C)C(=O)N[C@H]1C(=O)N[C@@H](CC(N)=O)C(=O)N[C@H]2C(=O)N[C@H]3C(=O)N[C@H](C(=O)N[C@H](C(=O)OC)c4cc(OC)cc(OC)c4-c4cc3ccc4OC)[C@H](O)c3ccc(c(Cl)c3)Oc3cc2cc(c3OC)Oc2ccc(cc2[N+](=O)[O-])[C@H]1O	0.097	> 40	> 40				
CN[C@H](CC(C)C)C(=O)N[C@H]1C(=O)N[C@@H](CC(N)=O)C(=O)N[C@H]2C(=O)N[C@H]3C(=O)N[C@H](C(=O)N[C@H](C(=O)OC)c4cc(OC)cc(OC)c4-c4cc3ccc4OC)[C@H](O)c3ccc(c(Cl)c3)Oc3cc2cc(c3OC)Oc2ccc(cc2B(O)O)[C@H]1O	0.23	10 (≈ 8.17 µM)	5 (≈ 4.09 µM)				
CN[C@H](CC(C)C)C(=O)N[C@H]1C(=O)N[C@@H](CC(N)=O)C(=O)N[C@H]2C(=O)N[C@H]3C(=O)N[C@H](C(=O)N[C@H](C(=O)OC)c4cc(OC)cc(OC)c4-c4cc3ccc4OC)[C@H](O)c3ccc(c(Cl)c3)Oc3cc2cc(c3OC)Oc2ccc(cc2Br)[C@H]1O	1.1	5 (≈ 3.97 µM)	2.5 (≈ 1.99 µM)				
CN[C@H](CC(C)C)C(=O)N[C@H]1C(=O)N[C@@H](CC(N)=O)C(=O)N[C@H]2C(=O)N[C@H]3C(=O)N[C@H](C(=O)N[C@H](C(=O)O)c4cc(O)cc(O)c4-c4cc3ccc4O)[C@H](O)c3ccc(c(Cl)c3)Oc3cc2cc(c3O)Oc2ccc(cc2Br)[C@H]1O	1.1	40 (≈ 33.7 µM)	2.5 (≈ 2.1 µM)				
CN[C@H](CC(C)C)C(=O)N[C@H]1C(=O)N[C@@H](CC(N)=O)C(=O)N[C@H]2C(=O)N[C@H]3C(=O)N[C@H](C(=O)N[C@H](C(=O)OC)c4cc(OC)cc(OC)c4-c4cc3ccc4OC)[C@H](O)c3ccc(c(Cl)c3)Oc3cc2cc(c3OC)Oc2ccc(cc2Cl)[C@H]1O	1.3	2.5 (≈ 2.06 µM)	1.25 (≈ 1.03 µM)	1.25 (≈ 1.03 µM)	2.5 (≈ 2.06 µM)	50 (≈ 41.2 µM)	
COC(=O)[C@H]1NC(=O)[C@H]2NC(=O)[C@H](NC(=O)[C@@H]3NC(=O)[C@H]4NC(=O)[C@@H](Cc5ccc(c(Cl)c5)Oc5cc3cc(c5OC)Oc3ccc(cc3Cl)[C@H]2O)NC(=O)[C@H](N)c2ccc(OC)c(c2)Oc2cc(OC)cc4c2)c2ccc(OC)c(c2)-c2c(OC)cc(OC)cc21				3.2 (≈ 2.47 µM)	3.2 (≈ 2.47 µM)	> 100	
N[C@H]1C(=O)N[C@@H]2Cc3ccc(c(Cl)c3)Oc3cc4cc(c3O)Oc3ccc(cc3Cl)[C@@H](O)[C@@H]3NC(=O)[C@H](NC(=O)[C@@H]4NC(=O)[C@@H](NC2=O)c2cc(O)cc(c2)Oc2cc1ccc2O)c1ccc(O)c(c1)-c1c(O)cc(O)cc1[C@@H](C(=O)O)NC3=O [TEICOPLANIN AGLYCON]				1.6 (≈ 1.33 µM)	25 (≈ 20.9 µM)	> 100	
CN[C@H](CC(C)C)C(=O)N[C@H]1C(=O)N[C@@H](CC(N)=O)C(=O)N[C@H]2C(=O)N[C@H]3C(=O)N[C@H](C(=O)N[C@H](C(=O)OC)c4cc(OC)cc(OC)c4-c4cc3ccc4OC)[C@H](O)c3ccc(c(Cl)c3)Oc3cc2cc(c3OC)Oc2ccc(cc2)[C@H]1O	0.71	5 (≈ 4.24 µM)	5 (≈ 4.24 µM)				1
CN[C@H](CC(C)C)C(=O)N[C@H]1C(=O)N[C@@H](CC(N)=O)C(=O)N[C@H]2C(=O)N[C@H]3C(=O)N[C@H](C(=O)N[C@H](C(=O)OC)c4cc(OC)cc(OC)c4-c4cc3ccc4OC)[C@H](O)c3ccc(c(Cl)c3)Oc3cc2cc(c3OC)Oc2ccc(cc2I)[C@H]1O	1.3	10 (≈ 7.66 µM)	2.5 (≈ 1.91 µM)				
CN[C@H](CC(C)C)C(=O)N[C@H]1C(=O)N[C@@H](CC(N)=O)C(=O)N[C@H]2C(=O)N[C@H]3C(=O)N[C@H](C(=O)N[C@H](C(=O)OC)c4cc(OC)cc(OC)c4-c4cc3ccc4OC)[C@H](O)c3ccc(c(Cl)c3)Oc3cc2cc(c3OC)Oc2ccc(cc2N(C)C)[C@H]1O	0.34	10 (≈ 8.18 µM)	5 (≈ 4.09 µM)				
CN[C@H](CC(C)C)C(=O)N[C@H]1C(=O)N[C@@H](CC(N)=O)C(=O)N[C@H]2C(=O)N[C@H]3C(=O)N[C@H](C(=O)N[C@H](C(=O)OC)c4cc(OC)cc(OC)c4-c4cc3ccc4OC)[C@H](O)c3ccc(c(Cl)c3)Oc3cc2cc(c3OC)Oc2ccc(cc2C#N)[C@H]1O	1.1	5 (≈ 4.15 µM)	2.5 (≈ 2.08 µM)				
CN[C@H](CC(C)C)C(=O)N[C@H]1C(=O)N[C@@H](CC(N)=O)C(=O)N[C@H]2C(=O)N[C@H]3C(=O)N[C@H](C(=O)N[C@H](C(=O)O)c4cc(O)cc(O)c4-c4cc3ccc4O)[C@H](O)c3ccc(c(Cl)c3)Oc3cc2cc(c3O)Oc2ccc(cc2O)[C@H]1O	0.53	40 (≈ 35.5 µM)	5 (≈ 4.44 µM)				
CN[C@H](CC(C)C)C(=O)N[C@H]1C(=O)N[C@@H](CC(N)=O)C(=O)N[C@H]2C(=O)N[C@H]3C(=O)N[C@H](C(=O)N[C@H](C(=O)O)c4cc(O)cc(O)c4-c4cc3ccc4O)[C@H](O)c3ccc(c(Cl)c3)Oc3cc2cc(c3O)Oc2ccc(cc2)[C@H]1O	0.68	80 (≈ 72.1 µM)	5 (≈ 4.51 µM)				
CN[C@H](CC(C)C)C(=O)N[C@H]1C(=O)N[C@@H](CC(N)=O)C(=O)N[C@H]2C(=O)N[C@H]3C(=O)N[C@H](C(=O)N[C@H](C(=O)O)c4cc(O)cc(O)c4-c4cc3ccc4O)[C@H](O)c3ccc(c(Cl)c3)Oc3cc2cc(c3O[C@@H]2O[C@H](CO)[C@@H](O)[C@H](O)[C@H]2O[C@H]2C[C@](C)(N)[C@H](O)[C@H](C)O2)Oc2ccc(cc2Cl)[C@H]1O [VANCOMYCIN]		120 (≈ 82.8 µM)	1.25 (≈ 0.863 µM)		120 (≈ 82.8 µM)	> 100	
CN[C@H](CC(C)C)C(=O)N[C@H]1C(=O)N[C@@H](CC(N)=O)C(=O)N[C@H]2C(=O)N[C@H]3C(=O)N[C@H](C(=O)N[C@H](C(=O)OC)c4cc(OC)cc(OC)c4-c4cc3ccc4OC)[C@H](O)c3ccc(c(Cl)c3)Oc3cc2cc(c3OC)Oc2ccc(cc2O)[C@H]1O	0.88	5 (≈ 4.18 µM)	5 (≈ 4.18 µM)				1
CN[C@H](CC(C)C)C(=O)N[C@H]1C(=O)N[C@@H](CC(N)=O)C(=O)N[C@H]2C(=O)N[C@H]3C(=O)N[C@H](C(=O)N[C@H](C(=O)OC)c4cc(OC)cc(OC)c4-c4cc3ccc4OC)[C@H](O)c3ccc(c(Cl)c3)Oc3cc2cc(c3OC)Oc2ccc(cc2C(F)(F)F)[C@H]1O	1.2	20 (≈ 16 µM)	2.5 (≈ 2 µM)				8
CN[C@H](CC(C)C)C(=O)N[C@H]1C(=O)N[C@@H](CC(N)=O)C(=O)N[C@H]2C(=O)N[C@H]3C(=O)N[C@H](C(=O)N[C@H](C(=O)OC)c4cc(OC)cc(OC)c4-c4cc3ccc4OC)[C@H](O)c3ccc(c(Cl)c3)Oc3cc2cc(c3OC)Oc2ccc(cc2C)[C@H]1O	1.2	5 (≈ 4.19 µM)	2.5 (≈ 2.09 µM)				
CN[C@H](CC(C)C)C(=O)N[C@H]1C(=O)N[C@@H](CC(N)=O)C(=O)N[C@H]2C(=O)N[C@H]3C(=O)N[C@H](C(=O)N[C@H](C(=O)O)c4cc(O)cc(O)c4-c4cc3ccc4O)[C@H](O)c3ccc(c(Cl)c3)Oc3cc2cc(c3O)Oc2ccc(cc2Cl)[C@H]1O [VANCOMYCIN AGLYCON]	1.4	40 (≈ 35 µM)	1.25 (≈ 1.09 µM)	0.8 (≈ 0.699 µM)	> 100	> 100	
CN[C@H](CC(C)C)C(=O)N[C@H]1C(=O)N[C@@H](CC(N)=O)C(=O)N[C@H]2C(=O)N[C@H]3C(=O)N[C@H](C(=O)N[C@H](C(=O)OC)c4cc(OC)cc(OC)c4-c4cc3ccc4OC)[C@H](O)c3ccc(c(Cl)c3)Oc3cc2cc(c3OC)Oc2ccc(cc2OC)[C@H]1O	1.2	5 (≈ 4.13 µM)	2.5 (≈ 2.07 µM)				
CN[C@H](CC(C)C)C(=O)N[C@H]1C(=O)N[C@@H](CC(N)=O)C(=O)N[C@H]2C(=O)N[C@H]3C(=O)N[C@H](C(=O)N[C@H](C(=O)OC)c4cc(OC)cc(OC)c4-c4cc3ccc4OC)[C@H](O)c3ccc(c(Cl)c3)Oc3cc2cc(c3OC)Oc2ccc(cc2C(=O)OC)[C@H]1O	1	10 (≈ 8.08 µM)	2.5 (≈ 2.02 µM)				
CN[C@H](CC(C)C)C(=O)N[C@H]1C(=O)N[C@@H](CC(N)=O)C(=O)N[C@H]2C(=O)N[C@H]3C(=O)N[C@H](C(=O)N[C@H](C(=O)OC)c4cc(OC)cc(OC)c4-c4cc3ccc4OC)[C@H](O)c3ccc(c(Cl)c3)Oc3cc2cc(c3OC)Oc2ccc(cc2N=[N+]=[N-])[C@H]1O	1.2	5 (≈ 4.1 µM)	1.25 (≈ 1.02 µM)				

— ChEMBL document CHEMBL2346573, “Probing the role of the vancomycin e-ring aryl chloride: selective divergent synthesis and evaluation of alternatively substituted E-ring analogues” (2013)
